Results from ChEMBL document CHEMBL1138574, “Regioselective synthesis and stereochemical structure of anti-tumor active dispiro[3H-indole-3,2'-pyrrolidine-3',3''-piperidine]-2(1H),4''-diones” (2009).

How the values were obtained:
Format in all cases: functional
MDA-MB-231 = assay: Antitumor activity against human MDA-MB-231 cells assessed as cell growth at 10 uM after 48 hrs by sulforhodamine B assay; conditions: MDA-MB-231, 48 h, read-out: Activity
NCI-H460 = assay: Antitumor activity against human NCI-H460 cells assessed as cell growth at 10 uM after 48 hrs by sulforhodamine B assay; conditions: NCI-H460, 48 h, read-out: Activity
SR = assay: Antitumor activity against human SR cells assessed as cell growth at 10 uM after 48 hrs by sulforhodamine B assay; conditions: read-out: Activity
IGROV-1 = assay: Antitumor activity against human IGROV1 cells assessed as cell growth at 10 uM after 48 hrs by sulforhodamine B assay; conditions: IGROV-1, 48 h, read-out: Activity
K562 = assay: Antitumor activity against human K562 cells assessed as cell growth at 10 uM after 48 hrs by sulforhodamine B assay; conditions: K562, 48 h, read-out: Activity
TK-10 = assay: Antitumor activity against human TK10 cells assessed as cell growth at 10 uM after 48 hrs by sulforhodamine B assay; conditions: TK-10, 48 h, read-out: Activity
ACHN = assay: Antitumor activity against human ACHN cells assessed as cell growth at 10 uM after 48 hrs by sulforhodamine B assay; conditions: read-out: Activity
EKVX = assay: Antitumor activity against human EKVX cells assessed as cell growth at 10 uM after 48 hrs by sulforhodamine B assay; conditions: read-out: Activity
A498 = assay: Antitumor activity against human A498 cells assessed as cell growth at 10 uM after 48 hrs by sulforhodamine B assay; conditions: A498, 48 h, read-out: Activity
OVCAR-8 = assay: Antitumor activity against human OVCAR8 cells assessed as cell growth at 10 uM after 48 hrs by sulforhodamine B assay; conditions: OVCAR-8, 48 h, read-out: Activity
LOX IMVI = assay: Antitumor activity against human LOXIMVI cells assessed as cell growth at 10 uM after 48 hrs by sulforhodamine B assay; conditions: read-out: Activity
BT-549 = assay: Antitumor activity against human BT549 cells assessed as cell growth at 10 uM after 48 hrs by sulforhodamine B assay; conditions: BT-549, 48 h, read-out: Activity
SF-268 = assay: Antitumor activity against human SF268 cells assessed as cell growth at 10 uM after 48 hrs by sulforhodamine B assay; conditions: SF-268, 48 h, read-out: Activity
NCI-H522 = assay: Antitumor activity against human NCI-H522 cells assessed as cell growth at 10 uM after 48 hrs by sulforhodamine B assay; conditions: NCI-H522, 48 h, read-out: Activity
PC-3 = assay: Antitumor activity against human PC3 cells assessed as cell growth at 10 uM after 48 hrs by sulforhodamine B assay; conditions: PC-3, 48 h, read-out: Activity
NCI-H226 = assay: Antitumor activity against human NCI-H226 cells assessed as cell growth at 10 uM after 48 hrs by sulforhodamine B assay; conditions: NCI-H226, 48 h, read-out: Activity
OVCAR-5 = assay: Antitumor activity against human OVCAR5 cells assessed as cell growth at 10 uM after 48 hrs by sulforhodamine B assay; conditions: OVCAR-5, 48 h, read-out: Activity
T47D = assay: Antitumor activity against human T47D cells assessed as cell growth at 10 uM after 48 hrs by sulforhodamine B assay; conditions: read-out: Activity
HT-29 = assay: Antitumor activity against human HT-29 cells assessed as cell growth at 10 uM after 48 hrs by sulforhodamine B assay; conditions: HT-29, 48 h, read-out: Activity
HL-60(TB) = assay: Antitumor activity against human HL-60(TB) cells assessed as cell growth at 10 uM after 48 hrs by sulforhodamine B assay; conditions: HL-60, 48 h, read-out: Activity
Rattus norvegicus [1] = assay: Antiinflammatory activity in Wister albino rat assessed as inhibition of carrageenan-induced paw oedema at 50 mg/kg, ip administered 1 hr before carrageenan challenge measured after 4 hrs of induction of inflammation relative to control; conditions: route intraperitoneal
SK-OV-3 = assay: Antitumor activity against human SKOV3 cells assessed as cell growth at 10 uM after 48 hrs by sulforhodamine B assay; conditions: SK-OV-3, 48 h, read-out: Activity
KM12 = assay: Antitumor activity against human KM12 cells assessed as cell growth at 10 uM after 48 hrs by sulforhodamine B assay; conditions: KM12, 48 h, read-out: Activity
UACC-257 = assay: Antitumor activity against human UACC257 cells assessed as cell growth at 10 uM after 48 hrs by sulforhodamine B assay; conditions: UACC-257, 48 h, read-out: Activity
[2] = Antitumor activity against human […] cells assessed as cell growth at 10 uM after 48 hrs by sulforhodamine B assay; conditions: read-out: Activity
SW-620 = assay: Antitumor activity against human SW620 cells assessed as cell growth at 10 uM after 48 hrs by sulforhodamine B assay; conditions: SW-620, 48 h, read-out: Activity
RXF 393 = assay: Antitumor activity against human RXF393 cells assessed as cell growth at 10 uM after 48 hrs by sulforhodamine B assay; conditions: RXF 393, 48 h, read-out: Activity
Rattus norvegicus [3] = assay: Antiinflammatory activity in Wister albino rat assessed as inhibition of carrageenan-induced paw oedema at 50 mg/kg, ip administered 1 hr before carrageenan challenge measured after 1 hr of induction of inflammation relative to control; conditions: route intraperitoneal
SF-295 = assay: Antitumor activity against human SF295 cells assessed as cell growth at 10 uM after 48 hrs by sulforhodamine B assay; conditions: SF-295, 48 h, read-out: Activity

| Structure (SMILES) | growth at 10 µM (MDA-MB-231) [%] | growth at 10 µM (NCI-H460) [%] | growth at 10 µM (SR) [%] | growth at 10 µM (IGROV-1) [%] | growth at 10 µM (K562) [%] | growth at 10 µM (TK-10) [%] | growth at 10 µM (ACHN) [%] | growth at 10 µM (EKVX) [%] | growth at 10 µM (A498) [%] | growth at 10 µM (OVCAR-8) [%] | growth at 10 µM (LOX IMVI) [%] | growth at 10 µM (BT-549) [%] | growth at 10 µM (SF-268) [%] | growth at 10 µM (NCI-H522) [%] | growth at 10 µM (PC-3) [%] | growth at 10 µM (NCI-H226) [%] | growth at 10 µM (OVCAR-5) [%] | growth at 10 µM (T47D) [%] | growth at 10 µM (HT-29) [%] | growth at 10 µM (HL-60(TB)) [%] | also measured |
| --- | --- | --- | --- | --- | --- | --- | --- | --- | --- | --- | --- | --- | --- | --- | --- | --- | --- | --- | --- | --- | --- |
| CN1C/C(=C\c2ccc(-c3cccs3)cc2)C(=O)[C@]2(C1)[C@@H](c1ccc(-c3cccs3)cc1)CN(C)[C@@]21C(=O)N(C)c2ccccc21 | 52.4 | 52.1 | 30.5 | 81.4 | 59.5 | 78.8 | 56.5 | 47.1 | 46.5 | 65.7 | 65 | 79.7 | 72.4 | 49.4 | 17.8 | 58 | 103 | 22.7 | 56.1 | 22.6 | inhibition in vivo at 50 mg/kg (Rattus norvegicus [1]): 69.8%; growth at 10 µM (SK-OV-3): 59.5%; growth at 10 µM (KM12): 45.2%; growth at 10 µM (UACC-257): 64.6%; growth at 10 µM [2]: 10.6%; growth at 10 µM (SW-620): 53.8%; growth at 10 µM (RXF 393): 55.6%; inhibition in vivo at 50 mg/kg (Rattus norvegicus [3]): 84.7% |
| COc1ccc(/C=C2\CN(C)C[C@@]3(C2=O)[C@@H](c2ccccc2)CN(C)[C@@]32C(=O)Nc3ccccc32)cc1 | 59.4 | 52.3 | 52.3 | 79.4 | 73.3 | 73.1 | 49.1 | 64.2 | 32.5 | 52.4 | 65.3 | 56.3 | 61.8 | 50.2 | 21 | 63 | 92.5 | 31.6 | 58.1 | 21.5 | inhibition in vivo at 50 mg/kg (Rattus norvegicus [1]): 78.7%; growth at 10 µM (SK-OV-3): 75.6%; growth at 10 µM (KM12): 37.7%; growth at 10 µM (UACC-257): 70.3%; growth at 10 µM [2]: 20.7%; growth at 10 µM (SW-620): 47.8%; growth at 10 µM (RXF 393): 57.8%; inhibition in vivo at 50 mg/kg (Rattus norvegicus [3]): 80.1% |
| CN1C/C(=C\c2ccc(Cl)cc2)C(=O)[C@]2(C1)[C@@H](c1ccc(Cl)cc1)CN(C)[C@@]21C(=O)N(C)c2ccccc21 | 70.4 | 71.5 | 70.3 | 92.1 | 30.4 | 81.8 | 57.5 | 42.1 | 69.4 | 79.5 | 73.9 | 80.3 | 83.6 | 56.4 | 32.5 | 58.6 | 87.7 | 46.7 | 68.4 | 16.6 | inhibition in vivo at 50 mg/kg (Rattus norvegicus [1]): 45.7%; growth at 10 µM (SF-295): 65.6%; growth at 10 µM (SK-OV-3): 85.2%; growth at 10 µM (KM12): 78.7%; growth at 10 µM (UACC-257): 72%; growth at 10 µM [2]: 38%; growth at 10 µM (SW-620): 68.1%; growth at 10 µM (RXF 393): 67.2%; inhibition in vivo at 50 mg/kg (Rattus norvegicus [3]): 82.3% |
| CN1C/C(=C\c2ccc(Cl)cc2)C(=O)[C@]2(C1)[C@@H](c1ccc(Cl)cc1)CN(C)[C@@]21C(=O)Nc2ccccc21 | 74.9 | 66.7 | 67.5 | 81.8 | 45.1 | 88.6 | 63.6 | 37.2 | 55.3 | 69.4 | 72.3 | 63.9 | 60.6 | 59.8 | 24.9 | 64.4 | 94.2 | 46.1 | 59.5 | 41.6 | inhibition in vivo at 50 mg/kg (Rattus norvegicus [1]): 42.2%; growth at 10 µM (SF-295): 64.5%; growth at 10 µM (SK-OV-3): 80.6%; growth at 10 µM (KM12): 64.2%; growth at 10 µM (UACC-257): 79.3%; growth at 10 µM [2]: 38.5%; growth at 10 µM (SW-620): 57.7%; growth at 10 µM (RXF 393): 67.5%; inhibition in vivo at 50 mg/kg (Rattus norvegicus [3]): 83.1% |
